# Key:
# [1] = Cell viability assay (MTT), L929; type: cell-based, Mus musculus; conditions: mouse, L929 fibroblast cells
# Description: (§1) The epithelial cell line VERO (ATCC-Catalog No. CCL-81^TM), derived from the kidney of the African green monkey, Cercopithecus aethiops and fibroblast cell line L-929 (ATCC-Catalog No. CCL-1^TM), derived from Mus musculus (http://www.atcc.org) were grown in Iscoves’s Modified Dulbecco’s Medium (IMDM) supplemented with 10% (v/v) fetal bovine serum (FBS), plus 2 mM L-glutamine, 100 U/ml penicillin, 100.00 µg/ml streptomycin, 5 × 10^−5 M 2-mercaptoethanol and maintained at 37 °C in a 10% CO2 atmosphere. Subcultures were performed via enzymatic cell dissociation in 0.25% trypsin. After dissociation, the cells were placed in culture medium at 4 °C with 10% FBS to inhibit the action of trypsin. The isolated cells were centrifuged for 10 min at 1000×g at 4 °C, and the cells were grown in new bottles. This procedure was repeated when cells reached a confluence of ~90%. All commercial reactants and solvents were purchased from either Sigma-Aldrich Laborchemikalien GmbH (Dzitko et al. [2014]).
# (§2) Suspensions of the compounds 4a–l were freshly prepared (5 mg/ml DMSO) before the cells were exposed, and diluted to appropriate concentrations; 0.9, 1.8, 3.9, 7.8, 15.6, 31.2, 62.5, and 125.00 μg/ml with the culture medium. Cells treated with 2.5% DMSO-solvent served as a control in each experiment.
# (§3) The effects of tested compounds on the viability of mouse fibroblasts L929 and […] VERO cells were evaluated using the MTT assay. The MTT assay was used according to international standards: ISO 10993-5:2009 (Tests for in vitro cytotoxicity; http://www.iso.org/iso/catalogue_detail.htm? csnumber = 36406). L929 and VERO cells were plated into 96-well plates at a density of 1.0 × 10^4/100 μl/well in culture medium and allowed to attach for 24 h before treatment. Afterwards, culture medium in the plates was replaced by 100 μl compounds suspension at concentration of 0–125 μg/ml and the cells were exposed for 24 h. Then 1 mg/ml MTT (50 μl/well) was added to each well and incubated at 37 °C, 10 % CO2 for 2 h. Mitochondrial dehydrogenases of viable cells reduce the yellowish water-soluble MTT to water-insoluble formazan crystals, which were solubilized with dimethyl sulfoxide (DMSO). The cell culture medium was aspirated cautiously, after which 150 μl DMSO was added to each well and mixed thoroughly. Optical density (OD) was read on the ELISA reader (Multiskan EX, Labsystems; http://www.mtxlsi.com/multiskan_EX.htm) at 550 nm. The results were expressed as percentage viability compared with the treated 2.5% DMSO controls. All experiments were performed in triplicate.
# mouse L929 fibroblast = assay: Cell viability assay (MTT), L929; type: cell-based; conditions: concentration for 30% proliferation inhibition, 24 h
# Description: as §1, §2, §3
# VERO cells = assay: Cell viability assay (MTT), VERO; type: cell-based, Cercopithecus aethiops; conditions: concentration for 30% proliferation inhibition, 24 h
# Description: as §1, §2, §3
# [2] = Cell viability assay (MTT), VERO; type: cell-based, Cercopithecus aethiops; conditions: African green monkey (Cercopithecus aethiops), VERO kidney epithelial cells
# Description: as §1, §2, §3
# [3] = tested on: Toxoplasma gondii BK strain; assay: T. gondii tachyzoite intracellular proliferation in VERO host cells ([3H]uracil incorporation); type: cell-based; conditions: Toxoplasma gondii, VERO host cells
# Description: as §1, §2
# Stock solutions of the Sulfadiazine (100 mg/ml 1 N NaOH; Catalog No. S8626) was freshly prepared before each experiment, and diluted to appropriate concentrations: 5.00, 25.00, 50.00, 125.00, 250.00, 500.00, 1250.00, and 2500.00 μg/ml, respectively in IMDM complete medium. All commercial reactants and solvents were purchased from either Sigma-Aldrich Laborchemikalien GmbH.
# Tachyzoites of T. gondii, BK strain, were maintained in female C57BL/6 (H-2^b) and BALB/c (H-2^d) mice (with genetically determined high and low susceptibility, respectively to Toxoplasma infection) via serial intraperitoneal inoculation of 10^5–10^6 parasites per mouse in phosphate-buffered saline (PBS). After 48 to 96 h, parasites were harvested via peritoneal lavage using PBS, pH 7.2, and centrifuged at 200×g for 5 min to remove blood cells and cell debris. The supernatant containing tachyzoites was collected and centrifuged again at 2000×g for 15 min. The final pellet was resuspended in IMDM, quantified in a Burker’s chamber, and used in experimental assays. Inbred mice were kept under standard laboratory conventional conditions. All experimental procedures were conducted according to guidelines of the 9. Local Ethics Commission for Experiments on Animals in Lodz.
# VERO, (2 × 10^4 cells/100 µl/well) were grown in complete medium (IMDM) on 96-well plates. After 24 h incubation, a medium was removed and then T. gondii […] tachyzoites, suspended in culture medium supplemented with 0.9–125.00 μg/ml diaminotriazines 4a–l and as a control-sulfadiazine (5.0–2500.0 μg/ml), were added (2 × 10^5 tachyzoites/200 µl/well) to the cell monolayers. After subsequent 48 h incubation 1 µCi/well of [^3H] uracil (Moravek Biochemicals Inc., Brea, CA, USA) was applied to each microculture for further 18–20 h. The amount of the isotope incorporated into the parasite nucleic acid pool, corresponding to the parasite growth, was measured by liquid scintillation counting with 1450 Microbeta Plus Liquid Scintillation Counter (Wallac Oy, Turku, Finland). The cpms of host cells alone (below 250/microculture) were subtracted from cpms of T. gondii infected microcultures (Dzitko et al. [2014]).
compound,measurement,setting,value
"C/C(=N\NC(N)=S)c1ccc(Nc2nc(N)nc(N)n2)cc1 [Compound 3, (2E)-2-(1-(4-((4,6-diamino-1,3,5-triazin-2-yl)amino)phenyl)ethylidene)hydrazinecarbothioamide]","viability at 24 h, 0.9 µg/ml",[1]; 0.9 µg/ml,110%
same,"viability at 24 h, 1.8 µg/ml",[1]; 1.8 µg/ml,116%
same,"viability at 24 h, 3.9 µg/ml",[1]; 3.9 µg/ml,111%
same,"viability at 24 h, 7.8 µg/ml",[1]; 7.8 µg/ml,106%
same,"viability at 24 h, 15.6 µg/ml",[1]; 15.6 µg/ml,105%
same,"viability at 24 h, 31.2 µg/ml",[1]; 31.2 µg/ml,112%
same,"viability at 24 h, 62.5 µg/ml",[1]; 62.5 µg/ml,111%
same,"viability at 24 h, 125 µg/ml",[1]; 125.0 µg/ml,110%
same,CC30 L929,mouse L929 fibroblast,>125.0 µg/mL
same,CC30 VERO,VERO cells,>125.0 µg/mL
same,"viability at 24 h, 0.9 µg/ml",[2]; 0.9 µg/ml,97.2%
same,"viability at 24 h, 1.8 µg/ml",[2]; 1.8 µg/ml,94%
same,"viability at 24 h, 3.9 µg/ml",[2]; 3.9 µg/ml,97.3%
same,"viability at 24 h, 7.8 µg/ml",[2]; 7.8 µg/ml,88.8%
same,"viability at 24 h, 15.6 µg/ml",[2]; 15.6 µg/ml,89.5%
same,"viability at 24 h, 31.2 µg/ml",[2]; 31.2 µg/ml,96.2%
same,"viability at 24 h, 62.5 µg/ml",[2]; 62.5 µg/ml,95.1%
same,"viability at 24 h, 125 µg/ml",[2]; 125.0 µg/ml,89.2%
same,melting point,,> 230 °C
same,activity at 0.9 µg/mL,[3]; 0.9 µg/ml,100%
same,activity at 1.8 µg/mL,[3]; 1.8 µg/ml,107%
same,activity at 3.9 µg/mL,[3]; 3.9 µg/ml,98.6%
same,activity at 7.8 µg/mL,[3]; 7.8 µg/ml,84.2%
same,activity at 15.6 µg/mL,[3]; 15.6 µg/ml,64.6%
same,activity at 31.2 µg/mL,[3]; 31.2 µg/ml,57.8%
same,activity at 62.5 µg/mL,[3]; 62.5 µg/ml,49.4%
same,activity at 125 µg/mL,[3]; 125.0 µg/ml,48.7%
same,IC50,"[3]; GraphPad Prism curves, read-out: IC50 (50% inhibition of T. gondii proliferation in vitro)",70.4 µg/mL
